This is an account of results in ChEMBL document CHEMBL5537112, “Emerging opportunities to treat idiopathic pulmonary fibrosis: Design, discovery, and optimizations of small-molecule drugs targeting fibrogenic pathways” (Eur J Med Chem, 2023).

Usually IC50 stands for the concentration needed to halve the response being measured. The Ki is a measure of affinity in units of concentration, obtained from inhibition or displacement. What is called half-life is the time needed for the level to fall by half in the phase considered. One may read the clearance as the volume of plasma or blood freed of the substance per unit of time. Higher therefore signals a high capacity for elimination. As a reminder, the bioavailability is the share of a dose that reaches the circulation, judged against a reference dose that is usually intravenous. The term EC50 denotes the midpoint of the concentration-response curve.

The target in data set [1] is Voltage-gated inwardly rectifying potassium channel KCNH2 (Homo sapiens, UniProt Q12809). Nature of the data set: Inhibition of hERG. (In general: The hERG channel carries a current that helps repolarise heart muscle cells.)
Data set [2] addresses T1, Type-1 angiotensin II receptor (Homo sapiens, UniProt P30556).
T1 sequence (P30556 whole entry): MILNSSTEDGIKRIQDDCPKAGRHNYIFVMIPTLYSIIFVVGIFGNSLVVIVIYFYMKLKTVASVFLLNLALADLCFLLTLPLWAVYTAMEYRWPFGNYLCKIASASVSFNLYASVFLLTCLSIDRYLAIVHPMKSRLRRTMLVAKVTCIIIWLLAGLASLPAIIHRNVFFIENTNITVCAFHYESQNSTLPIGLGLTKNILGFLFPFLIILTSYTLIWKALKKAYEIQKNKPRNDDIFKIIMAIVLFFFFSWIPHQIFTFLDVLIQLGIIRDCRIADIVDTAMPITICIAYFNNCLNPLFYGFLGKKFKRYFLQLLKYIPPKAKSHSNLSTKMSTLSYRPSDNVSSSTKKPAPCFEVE
Nature of the data set: Binding affinity to AT1R (unknown origin) assessed as inhibition constant.

Data set [3] concerns the target T2, Platelet-derived growth factor receptor beta (Homo sapiens, UniProt P09619). Nature of the data set: Inhibition of PDGFRbeta (unknown origin) by DiscoverX KINOMEscan assay.
Data set [4] concerns the target T2, Platelet-derived growth factor receptor beta. The experiment in a line: Inhibition of glutathione S-transferase fused PDGFbetaR (unknown origin) in 3T3 cells. It is filed as cell-based.
Data set [5] has the same target. The experiment in a line: Inhibition of PDGFRbeta (unknown origin) by enzymatic assay.
Data set [6] is described as follows: Half life in rat. It is filed as ADME. As to conditions: in vivo.
The nature of data set [7]: AUC in Sprague-Dawley rat at 10 mg/kg, po. The following applies: in vivo. It is filed as ADME, organism-based.
In data set [8] the target is Vascular endothelial growth factor receptor 2 (Homo sapiens, UniProt P35968). Nature of the data set: Inhibition of VEGFR2 (unknown origin).
Data set [9] can be described thus: Metabolic stability in Sprague-Dawley rat assessed as half life. It counts as ADME.
Data set [10] has as its target Phosphatidylinositol 4,5-bisphosphate 3-kinase catalytic subunit alpha isoform (Homo sapiens, UniProt P42336). The experiment in a line: Inhibition of PI3Kalpha (unknown origin) by kinase profiling assay.
The next data set deals with T3, fMet-Leu-Phe receptor (Homo sapiens, UniProt P21462).
T3 sequence (P21462 whole entry): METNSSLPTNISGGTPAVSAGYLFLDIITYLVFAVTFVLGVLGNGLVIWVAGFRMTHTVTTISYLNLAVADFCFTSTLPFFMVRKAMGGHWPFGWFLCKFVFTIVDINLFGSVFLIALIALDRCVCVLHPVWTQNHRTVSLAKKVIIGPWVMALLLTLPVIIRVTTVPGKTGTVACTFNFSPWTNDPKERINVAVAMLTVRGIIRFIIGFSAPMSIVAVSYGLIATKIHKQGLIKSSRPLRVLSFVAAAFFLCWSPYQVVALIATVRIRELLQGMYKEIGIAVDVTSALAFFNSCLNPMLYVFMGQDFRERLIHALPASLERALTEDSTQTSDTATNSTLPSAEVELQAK
Nature of the data set: Inhibition of human FPR expressed in human U-937 cells by fluorescence based ligand binding assay. It is filed as cell-based.

The next data set in a line: in vivo. As to conditions: rat, po, 5 mg/kg.
A short description of data set [11]: Clearance in rat at 1 mg/kg, iv. It counts as ADME, organism-based. The following applies: in vivo.
Data set [12] can be described thus: Oral bioavailability in rat at 5 mg/kg. It is filed as ADME, organism-based. As to conditions: in vivo.
Data set [13] can be described thus: Oral bioavailability in rat. It is filed as ADME, organism-based. As to conditions: in vivo.
Data set [14] in a line: Clearance in rat at 5 mg/kg, iv. It counts as ADME, organism-based. The following applies: in vivo.
In data set [15] the target is Lysophosphatidic acid receptor 1 (Homo sapiens, UniProt Q92633). Nature of the data set: Antagonist activity at human LPA1 receptor expressed in CHO cells assessed as inhibition of LPA-induced calcium mobilization pretreated for 15 mins followed by LPA stimulation by FLIPR analysis. It counts as functional, cell-based.
The target of data set [16] is Sphingosine 1-phosphate receptor 2 (Homo sapiens, UniProt O95136). Nature of the data set: Agonist activity at S1P2 (unknown origin) expressed in CHO cells assessed as Ca2+ activation. It is filed as functional, cell-based.

The structures appear in SMILES notation.

T2 sequence (P09619 whole entry, the tested form may be a part): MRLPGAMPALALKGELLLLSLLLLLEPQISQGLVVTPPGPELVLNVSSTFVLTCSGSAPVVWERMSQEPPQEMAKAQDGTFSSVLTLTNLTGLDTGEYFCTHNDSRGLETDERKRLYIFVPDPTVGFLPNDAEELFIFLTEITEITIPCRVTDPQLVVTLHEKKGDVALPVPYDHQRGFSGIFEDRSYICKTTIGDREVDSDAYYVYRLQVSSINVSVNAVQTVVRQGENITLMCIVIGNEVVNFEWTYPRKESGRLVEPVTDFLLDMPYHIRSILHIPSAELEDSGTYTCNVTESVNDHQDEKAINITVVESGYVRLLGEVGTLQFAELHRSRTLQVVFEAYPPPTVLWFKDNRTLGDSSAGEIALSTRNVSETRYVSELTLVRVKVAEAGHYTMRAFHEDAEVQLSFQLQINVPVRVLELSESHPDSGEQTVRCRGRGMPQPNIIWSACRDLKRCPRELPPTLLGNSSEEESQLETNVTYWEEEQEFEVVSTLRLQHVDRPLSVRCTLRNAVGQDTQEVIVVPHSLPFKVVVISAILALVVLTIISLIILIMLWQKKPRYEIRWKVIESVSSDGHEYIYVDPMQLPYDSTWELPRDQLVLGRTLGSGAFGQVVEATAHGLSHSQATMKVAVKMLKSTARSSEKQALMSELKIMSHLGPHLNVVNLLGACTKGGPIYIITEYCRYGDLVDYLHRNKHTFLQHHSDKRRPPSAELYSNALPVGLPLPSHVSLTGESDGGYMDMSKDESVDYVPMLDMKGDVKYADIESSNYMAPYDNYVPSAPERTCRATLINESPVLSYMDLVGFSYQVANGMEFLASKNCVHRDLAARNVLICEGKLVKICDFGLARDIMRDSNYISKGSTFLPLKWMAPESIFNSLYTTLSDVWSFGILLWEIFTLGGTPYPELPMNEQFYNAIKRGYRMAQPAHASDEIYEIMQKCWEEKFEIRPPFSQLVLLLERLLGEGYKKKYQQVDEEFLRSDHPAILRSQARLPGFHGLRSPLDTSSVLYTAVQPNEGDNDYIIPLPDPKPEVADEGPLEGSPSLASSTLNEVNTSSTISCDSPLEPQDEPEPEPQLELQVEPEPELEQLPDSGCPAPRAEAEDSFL
Phosphatidylinositol 4,5-bisphosphate 3-kinase catalytic subunit alpha isoform, sequence (P42336 whole entry, canonical isoform): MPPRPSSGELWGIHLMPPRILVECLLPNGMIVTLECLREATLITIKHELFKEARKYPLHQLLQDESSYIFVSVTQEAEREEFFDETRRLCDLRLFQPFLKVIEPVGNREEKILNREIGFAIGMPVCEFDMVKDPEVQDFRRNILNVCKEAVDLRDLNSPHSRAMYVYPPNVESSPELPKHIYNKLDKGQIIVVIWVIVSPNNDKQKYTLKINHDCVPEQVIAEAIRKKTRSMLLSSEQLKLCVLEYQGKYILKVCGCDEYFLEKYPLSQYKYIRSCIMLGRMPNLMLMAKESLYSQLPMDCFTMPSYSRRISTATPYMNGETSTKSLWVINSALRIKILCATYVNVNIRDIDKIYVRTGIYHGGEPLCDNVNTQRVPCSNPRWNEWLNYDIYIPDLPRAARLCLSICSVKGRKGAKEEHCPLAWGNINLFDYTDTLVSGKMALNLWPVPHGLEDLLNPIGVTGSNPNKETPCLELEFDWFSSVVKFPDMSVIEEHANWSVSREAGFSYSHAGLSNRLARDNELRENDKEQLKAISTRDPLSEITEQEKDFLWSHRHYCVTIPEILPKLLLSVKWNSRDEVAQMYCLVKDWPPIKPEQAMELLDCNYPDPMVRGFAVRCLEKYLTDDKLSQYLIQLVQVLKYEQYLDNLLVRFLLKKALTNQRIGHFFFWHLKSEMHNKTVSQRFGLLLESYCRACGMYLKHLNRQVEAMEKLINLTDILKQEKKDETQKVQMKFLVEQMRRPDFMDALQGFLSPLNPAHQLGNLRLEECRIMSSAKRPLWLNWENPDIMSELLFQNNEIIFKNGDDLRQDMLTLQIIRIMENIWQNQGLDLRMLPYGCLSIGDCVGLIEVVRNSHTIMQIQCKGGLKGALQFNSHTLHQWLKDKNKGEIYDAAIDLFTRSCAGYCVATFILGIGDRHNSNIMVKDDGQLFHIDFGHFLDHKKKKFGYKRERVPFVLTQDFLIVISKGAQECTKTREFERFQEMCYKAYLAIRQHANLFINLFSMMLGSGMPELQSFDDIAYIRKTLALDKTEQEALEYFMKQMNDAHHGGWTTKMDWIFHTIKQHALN
Vascular endothelial growth factor receptor 2, sequence (P35968 whole entry): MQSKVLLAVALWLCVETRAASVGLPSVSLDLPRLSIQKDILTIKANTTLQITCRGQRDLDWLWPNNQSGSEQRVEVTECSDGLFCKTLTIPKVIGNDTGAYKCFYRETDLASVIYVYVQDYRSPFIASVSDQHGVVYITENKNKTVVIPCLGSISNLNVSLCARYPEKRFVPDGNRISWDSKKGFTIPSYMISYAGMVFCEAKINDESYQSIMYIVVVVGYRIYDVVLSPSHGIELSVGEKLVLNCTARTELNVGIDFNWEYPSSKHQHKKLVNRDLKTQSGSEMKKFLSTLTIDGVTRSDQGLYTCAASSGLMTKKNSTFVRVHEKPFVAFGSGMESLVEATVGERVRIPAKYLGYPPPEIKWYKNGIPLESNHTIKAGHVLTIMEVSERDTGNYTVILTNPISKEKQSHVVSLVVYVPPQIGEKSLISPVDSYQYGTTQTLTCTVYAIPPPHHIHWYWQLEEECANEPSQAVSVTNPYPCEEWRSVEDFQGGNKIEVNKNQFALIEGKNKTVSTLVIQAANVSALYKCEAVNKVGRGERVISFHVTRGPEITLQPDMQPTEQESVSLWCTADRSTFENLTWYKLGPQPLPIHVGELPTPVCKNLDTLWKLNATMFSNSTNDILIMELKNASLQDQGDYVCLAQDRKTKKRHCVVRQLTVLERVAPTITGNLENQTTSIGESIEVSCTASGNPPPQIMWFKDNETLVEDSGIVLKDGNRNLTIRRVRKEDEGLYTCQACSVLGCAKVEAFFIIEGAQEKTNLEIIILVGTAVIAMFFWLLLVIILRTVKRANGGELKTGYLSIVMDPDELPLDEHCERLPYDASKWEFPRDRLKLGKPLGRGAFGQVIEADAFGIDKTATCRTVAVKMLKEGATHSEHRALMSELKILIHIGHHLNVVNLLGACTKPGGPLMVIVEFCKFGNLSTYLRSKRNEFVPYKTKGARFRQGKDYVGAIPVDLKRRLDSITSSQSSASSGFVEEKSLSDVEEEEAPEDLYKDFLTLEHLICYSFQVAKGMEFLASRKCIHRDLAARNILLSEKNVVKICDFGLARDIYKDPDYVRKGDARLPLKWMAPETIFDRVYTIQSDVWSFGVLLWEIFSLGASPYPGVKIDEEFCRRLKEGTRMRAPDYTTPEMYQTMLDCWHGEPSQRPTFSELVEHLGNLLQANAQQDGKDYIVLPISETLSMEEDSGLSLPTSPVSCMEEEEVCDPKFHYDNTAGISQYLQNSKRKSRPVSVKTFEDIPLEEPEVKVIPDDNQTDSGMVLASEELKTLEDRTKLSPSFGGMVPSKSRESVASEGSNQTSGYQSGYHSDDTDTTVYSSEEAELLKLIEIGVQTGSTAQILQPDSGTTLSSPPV
Voltage-gated inwardly rectifying potassium channel KCNH2, sequence (Q12809 whole entry): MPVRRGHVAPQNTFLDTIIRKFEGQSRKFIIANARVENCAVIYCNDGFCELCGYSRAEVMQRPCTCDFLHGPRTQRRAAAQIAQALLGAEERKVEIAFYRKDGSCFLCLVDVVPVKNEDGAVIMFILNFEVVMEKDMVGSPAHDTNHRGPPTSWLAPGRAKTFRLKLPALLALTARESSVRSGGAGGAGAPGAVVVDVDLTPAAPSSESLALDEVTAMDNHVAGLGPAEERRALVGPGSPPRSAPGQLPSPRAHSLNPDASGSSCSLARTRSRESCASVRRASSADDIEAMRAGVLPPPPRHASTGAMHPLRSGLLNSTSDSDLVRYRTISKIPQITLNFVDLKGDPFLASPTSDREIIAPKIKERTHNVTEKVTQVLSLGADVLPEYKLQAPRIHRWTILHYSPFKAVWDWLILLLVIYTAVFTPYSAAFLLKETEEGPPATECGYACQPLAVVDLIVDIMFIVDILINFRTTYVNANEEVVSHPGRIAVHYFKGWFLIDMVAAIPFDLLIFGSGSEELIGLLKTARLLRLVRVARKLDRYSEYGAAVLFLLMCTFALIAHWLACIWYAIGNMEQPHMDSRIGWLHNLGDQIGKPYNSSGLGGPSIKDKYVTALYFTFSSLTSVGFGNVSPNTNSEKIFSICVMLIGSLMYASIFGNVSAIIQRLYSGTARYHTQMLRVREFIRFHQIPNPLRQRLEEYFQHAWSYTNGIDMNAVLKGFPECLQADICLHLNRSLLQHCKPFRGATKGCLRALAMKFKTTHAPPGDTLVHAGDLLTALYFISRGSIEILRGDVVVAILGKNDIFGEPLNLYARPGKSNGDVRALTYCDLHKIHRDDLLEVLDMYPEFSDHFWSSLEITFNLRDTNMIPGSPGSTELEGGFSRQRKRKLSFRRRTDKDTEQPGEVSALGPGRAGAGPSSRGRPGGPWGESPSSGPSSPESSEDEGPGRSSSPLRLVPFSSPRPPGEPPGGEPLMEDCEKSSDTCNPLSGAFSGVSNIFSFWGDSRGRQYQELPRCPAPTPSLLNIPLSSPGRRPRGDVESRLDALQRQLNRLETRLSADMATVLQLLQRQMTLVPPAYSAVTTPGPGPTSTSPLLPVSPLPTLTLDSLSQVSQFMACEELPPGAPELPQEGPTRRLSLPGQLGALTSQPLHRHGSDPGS
Lysophosphatidic acid receptor 1, sequence (Q92633 whole entry): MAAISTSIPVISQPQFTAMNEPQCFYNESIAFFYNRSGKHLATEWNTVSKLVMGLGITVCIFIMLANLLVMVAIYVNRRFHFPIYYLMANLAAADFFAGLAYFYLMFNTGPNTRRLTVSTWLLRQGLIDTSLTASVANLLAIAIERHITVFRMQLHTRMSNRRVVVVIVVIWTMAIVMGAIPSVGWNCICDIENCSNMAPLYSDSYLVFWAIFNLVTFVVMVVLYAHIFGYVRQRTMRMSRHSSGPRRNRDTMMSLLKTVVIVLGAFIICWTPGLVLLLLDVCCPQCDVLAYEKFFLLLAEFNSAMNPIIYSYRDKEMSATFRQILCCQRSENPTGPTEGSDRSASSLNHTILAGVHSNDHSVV
Description for in vivo: Half life in rat at 5 mg/kg, po

As to `COC(=O)c1ccc2c(c1)NC(=O)/C2=C(\Nc1ccc(N(C)C(=O)CN2CCN(C)CC2)cc1)c1ccccc1` [NINTEDANIB], half-maximal inhibition in data set [1] (IC50) required 2.6 µM.

For the molecule `CCCCOC(=O)NS(=O)(=O)c1sc(CC(C)C)cc1-c1ccc(Cn2c(CC)nc3c(C)cc(C)nc32)cc1`, the Ki in [2] was 0.0039 µM.

Molecule `CNC(=O)c1cc2c(Oc3ccc(NC(=S)NC(=O)Cc4ccccc4)cc3F)ccnc2cc1OC` [TAS-115] had an IC50 in [3] of 0.00706 µM.

With `COC(=O)c1ccc2c(c1)NC(=O)/C2=C(\Nc1ccc2c(c1)CCN2C(=O)CN1CCOCC1)c1ccccc1`, the figures for the IC50 in [4], in [5] and in data set [8] were 0.1 µM, 0.025 µM and 0.11 µM, respectively. The half-life in data set [6] and in [9] was 4.8 h throughout. Moreover, in data set [7], the AUC stood at 6406 h/ng/mL.

In [10], `O=S(=O)(Nc1cncc(-c2ccc3nccc(-c4ccncc4)c3c2)c1)c1ccccc1F` registered an IC50 of 0.0001 µM.

For the molecule `Cc1c(-c2ccccc2)nc2ccc(Br)cc2c1C(=O)NC[C@H](CC(=O)O)c1ccccc1Cl`, at fMet-Leu-Phe receptor, the IC50 was found to be 0.032 µM.

As for `O=c1nc(OC[C@@H]2COCCO2)cc2n1CCc1cc(C#CC3CC3)ccc1-2` [GLPG-1205], the half-life in the data set “in vivo” is 1.9 h. This molecule also returned a clearance in data set [11] of 0.9 L/h/kg. In data set [12], this molecule displayed a bioavailability of over 100%.

In the case of `COc1cc2c(Oc3ccc4[nH]c(C)cc4c3F)ccnc2cc1OCC1(N)CC1`, in [8], the IC50 is under 0.001 µM.

Molecule `CCc1nc2c(C)cc(N3CCN(CC(=O)N4CC(O)C4)CC3)cn2c1N(C)c1nc(-c2ccc(F)cc2)c(C#N)s1` [ZIRITAXESTAT] had a bioavailability in data set [13] of 34%. The same molecule showed a clearance in data set [14] of 0.69 L/h/kg.

For the molecule `O=C1NC(=O)C(Cc2ccc3nccc(-c4ccncc4)c3c2)S1` (stereo not given), half-maximal inhibition in [10] (IC50) required 0.002 µM.

`Cc1noc(-c2ccc(-c3ccc(C4(C(=O)O)CC4)cc3)cc2)c1NC(=O)O[C@H](C)c1ccccc1` [BMS-986020]: in data set [15], the EC50 is 0.0067 µM.

In the case of `Cc1cc(NNC(=O)Nc2cc(Cl)nc(Cl)c2)ncc1-c1cn(C)nc1C`, the IC50 in data set [16] is over 1.4 µM.
